Among the data in patent US20230051589A1, “COMPOUNDS AND COMPOSITIONS FOR TREATING CONDITIONS ASSOCIATED WITH NLRP ACTIVITY” (Novartis AG, priority 2018, published 2023) are IC50 values, retold here.

The subject of this test is IL-1β production in PMA-differentiated THP-1 cells. In words: IL-1β production in PMA-differentiated THP-1 cells stimulated with gramicidin (hTHP-1 assay, 2% fetal bovine serum; Procedures 1-3). In kind it is cell-based, human. As to conditions: Table B1; hTHP-1 assay containing 2% fetal bovine serum, gramicidin stimulation, IL-1β readout; read-out: hTHP-1 IC50 (average). As for the experimental part: The following protocol is suitable for testing the activity of the compounds disclosed herein.
Procedure 1: IL-1β Production in PMA-Differentiated THP-1 Cells Stimulated with Gramicidin.
THP-1 cells were purchased from the American Type Culture Collection and sub-cultured according to instructions from the supplier. Cells were cultured in complete RPMI 1640 (containing 10% heat inactivated FBS, penicillin (100 units/ml) and streptomycin (100 μg/ml)), and maintained in log phase prior to experimental setup. Prior to the experiment, compounds were dissolved in dimethyl sulfoxide (DMSO) to generate a 30 mM stock. The compound stock was first pre-diluted in DMSO to 3, 0.34, 0.042 and 0.0083 mM intermediate concentrations and subsequently spotted using Echo550 liquid handler into an empty 384-well assay plate to achieve desired final concentration (e.g. 100, 33, 11, 3.7, 1.2, 0.41, 0.14, 0.046, 0.015, 0.0051, 0.0017 μM). DMSO was backfilled in the plate to achieve a final DMSO assay concentration of 0.37%. The plate was then sealed and stored at room temperature until required.
THP-1 cells were treated with PMA (Phorbol 12-myristate 13-acetate) (20 ng/ml) for 16-18 hours. On the day of the experiment the media was removed and adherent cells were detached with trypsin for 5 minutes. Cells were then harvested, washed with complete RPMI 1640, spun down, and resuspended in RPMI 1640 (containing 2% heat inactivated FBS, penicillin (100 units/ml) and streptomycin (100 μg/ml). The cells were plated in the 384-well assay plate containing the spotted compounds at a density of 50,000 cells/well (final assay volume 50 μl). Cells were incubated with compounds for 1 hour and then stimulated with gramicidin (5 μM) (Enzo) for 2 hours. Plates were then centrifuged at 340 g for 5 min. Cell free supernatant (40 μL) was collected using a 96-channel PlateMaster (Gilson) and the production of IL-1β was evaluated by HTRF (cisbio). The plates were incubated for 18 h at 4° C. and read using the preset HTRF program (donor emission at 620 nm, acceptor emission at 668 nm) of the SpectraMax i3x spectrophotometer (Molecular Devices, software SoftMax 6). A vehicle only control and a dose titration of CRID3 (100-0.0017 μM) were run concurrently with each experiment.
Procedure 2: IL-1β Production in PMA-Differentiated THP-1 Cells Stimulated with Gramicidin.
THP-1 cells were purchased from the American Type Culture Collection and sub-cultured according to instructions from the supplier. Prior to experiments, cells were cultured in complete RPMI 1640 (containing 10% heat inactivated FBS, penicillin (100 units/ml) and streptomycin (100 μg/ml)), and maintained in log phase prior to experimental setup. Prior to the experiment THP-1 were treated with PMA (Phorbol 12-myristate 13-acetate) (20 ng/ml) for 16-18 hours. Compounds were dissolved in dimethyl sulfoxide (DMSO) to generate a 30 mM stock. On the day of the experiment the media was removed and adherent cells were detached with trypsin for 5 minutes. Cells were then harvested, washed with complete RPMI 1640, spun down, resuspended in RPMI 1640 (containing 2% heat inactivated FBS, penicillin (100 units/ml) and streptomycin (100 μg/ml) . The cells were plated in a 384-well plate at a density of 50,000 cells/well (final assay volume 50 μl). Compounds were first dissolved in assay medium to obtain a 5× top concentration of 500 μM. 10 step dilutions (1:3) were then undertaken in assay medium containing 1.67% DMSO. 5× compound solutions were added to the culture medium to achieve desired final concentration (e.g. 100, 33, 11, 3.7, 1.2, 0.41, 0.14, 0.046, 0.015, 0.0051, 0.0017 μM). Final DMSO concentration was at 0.37%. Cells were incubated with compounds for 1 hour and then stimulated with gramicidin (5 μM) (Enzo) for 2 hours. Plates were then centrifuged at 340 g for 5 min. Cell free supernatant (40 μL) was collected using a 96-channel PlateMaster (Gilson) and the production of IL-1β was evaluated by HTRF (cisbio). […]
Usually IC50 stands for the concentration that inhibits the measured activity by half. Consider `CC(C)(O)c1ncc(S(N)(=O)=NC(=O)Nc2c3c(cc4c2CCC4O)CCC3)s1` (single isomer, unassigned) [Example 338, (R, S) or (R, R)-N′-((1-hydroxy-1,2,3,5,6,7-hexa-hydro-s-indacen-4-yl)-carbamoyl)-2-(2-hydroxy-propan-2-yl)thiazole-5-sulfonimidamide], for which the concentration for half-maximal inhibition (IC50) lay within 1000 to 5000 nM. Turning to `CC(C)(O)c1ncc(S(N)(=O)=NC(=O)Nc2c3c(cc4c2OCC4)CCC3)s1` (single isomer, unassigned) [Example 343, (R) or (S)-2-(2-hydroxy-propan-2-yl)-N′-((3,5,6,7-tetrahydro-2H-indeno[5,6-b]furan-8-yl)carbamoyl)-thiazole-5-sulfonimidamide], the IC50 was 40 to 200 nM. For the molecule `CC(C)(O)c1cnc(S(N)(=O)=NC(=O)Nc2c3c(cc4c2OCC4)CCC3)s1` (single isomer, unassigned) [Example 350, (R) or (S)-5-(2-hydroxy-propan-2-yl)-N′-((3,5,6,7-tetrahydro-2H-indeno-[5,6-b]furan-8-yl)carbam-oyl)thiazole-2-sulfonimid-amide], the IC50 was in the range of 40 to 200 nM.

As for `CC(C)(O)c1csc(S(N)(=O)=NC(=O)Nc2c3c(cc4c2OCC4)CCC3)n1` (single isomer, unassigned) [Example 354, (R) or (S)-4-(2-hydroxy-propan-2-yl)-N′-((3,5,6,7-tetrahydro-2H-indeno-[5,6-b]furan-8-yl)carbam-oyl)thiazole-2-sulfonimid-amide], the IC50 is 8 to 40 nM. Then `CN(C)S(=O)(=NC(=O)Nc1c2c(cc3c1CCC3)CCC2)c1cc(C(C)(C)O)cs1` (single isomer, unassigned) [Example 357, (R) or (S)-N′-((1,2,3,5,6,7-hexahydro-s-indacen-4-yl)-carbamoyl)-4-(2-hydroxy-propan-2-yl)-N,N-dimeth-ylthiophene-2-sulfonimid-amide], with 5000 to 30000 nM.

In the case of `CN(C)C(C)(C)c1ccc(S(N)(=O)=NC(=O)Nc2c3c(cc4c2CCC4)CCC3)cc1` (single isomer, unassigned) [Example 361, (R) or (S)-4-(2-(dimethyl-amino)propan-2-yl)-N′-((1,2,3,5,6,7-hexahydro-s-indacen-4-yl)carbamoyl)-benzenesulfonimidamide], the IC50 lay in the range of 40 to 200 nM. Then `CC(C)(O)c1ncc(S(N)(=O)=NC(=O)Nc2c3c(cc4c2C(=O)CC4)CCC3)s1` (single isomer, unassigned) [Example 364, (R) or (S)-2-(2-Hydroxy-propan-2-yl)-N′-((3-oxo-1,2,3,5,6,7-hexahydro-s-indacen-4-yl)carbamoyl)-thiazole-5-sulfonimidamide], with 40 to 200 nM; and `CC(=O)N(C)Cc1ccc(S(N)(=O)=NC(=O)Nc2c3c(cc4c2CCC4)CCC3)cc1` (single isomer, unassigned) [Example 366, (R) or (S)-N-(4-N′-((1,2,3,5,6,7-hexahydro-s-indacen-4-yl)carbamoyl)-sulfamidimidoyl)benzyl)-N-methylacetamide], with 1000 to 5000 nM; and `CC(c1ccc(S(N)(=O)=NC(=O)Nc2c3c(cc4c2CCC4)CCC3)cc1)N(C)C` (single isomer, unassigned) [Example 372, (R) or (S)-4-(1-(dimethyl-amino)ethyl)-N′-((1,2,3,5,6,7-hexahydro-s-indacen-4-yl)carbamoyl)-benzenesulfonimidamide], with 40 to 200 nM. In the case of `CC(c1ccc(S(N)(=O)=NC(=O)Nc2c3c(cc4c2CCC4)CCC3)cc1)N(C)C` (single isomer, unassigned) [Example 377, (R, R) or (R, S) or (S, S) or (S, R)-4-(1-(dimethyl-amino)ethyl)-N′-((1,2,3,5,6,7-hexahydro-s-indacen-4-yl)carbamoyl)-benzenesulfonimidamide], the IC50 lay in the range of 40 to 200 nM. Then `COC1CN(Cc2ccc(S(N)(=O)=NC(=O)Nc3c4c(cc5c3CCC5)CCC4)cc2)C1` (single isomer, unassigned) [Example 379, (R) or (S)-N′-((1,2,3,5,6,7-hexahydro-s-indacen-4-yl)carbamoyl)-4-((3-methoxyazelidin-1-yl)-methyl)benzenesulfonimid-amide], with 1000 to 5000 nM; and `CN(C)Cc1cc(F)c(S(N)(=O)=NC(=O)Nc2c3c(cc4c2CCC4)CCC3)s1` (single isomer, unassigned) [Example 381, (R) or (S)-5-((dimethyl-amino)methyl)-3-fluoro-N′-((1,2,3,5,6,7-hexa-hydro-s-indacen-4-yl)-carbamoyl)thiophene-2-sulfonimidamide], with 8 to 40 nM; and `CC(C)(O)c1cc(F)c(S(N)(=O)=NC(=O)Nc2c3c(cc4c2CCC4)CCC3)s1` (single isomer, unassigned) [Example 385, (R) or (S)-3-fluoro-N′-((1,2,3,5,6,7-hexahydro-s-indacen-4-yl)carbamoyl)-5-(2-hydroxypropan-2-yl)thiophene-2-sulfonimid-amide], with 8 to 40 nM. In the case of `COC(C)(C)c1ncc(S(N)(=O)=NC(=O)Nc2c3c(cc4c2CCC4)CCC3)s1` (single isomer, unassigned) [Example 388, (R) or (S)-N′-((1,2,3,5,6,7-hexahydro-s-indacen-4-yl)carbamoyl)-2-(2-meth-oxypropan-2-yl)thiazole-5-sulfonimidamide] it was 40 to 200 nM; in that of `COCCN(C)Cc1ccc(S(N)(=O)=NC(=O)Nc2c3c(cc4c2CCC4)CCC3)cc1` (single isomer, unassigned) [Example 390, (R) or (S)-N′-((1,2,3,5,6,7-hexahydro-s-indacen-4-yl)carbamoyl)-4-(((2-meth-oxyethyl)(methyl)amino)-methyl)benzenesulfonimid-amide], 1000 to 5000 nM; in that of `CC(C)(O)c1ncc(S(N)(=O)=NC(=O)Nc2c3c(cc4c2C(O)CC4)CCC3)s1` (single isomer, unassigned) [Example 391, (R, R) or (R, S) or (S, S) or (S, R)-N′-((3-hydroxy-1,2,3,5,6,7-hexahydro-s-indacen-4-yl)carbamoyl)-2-(2-hydroxypropan-2-yl)thiazole-5-sulfonimid-amide], 200 to 1000 nM. In the case of `CC(C)(O)c1ncc(S(N)(=O)=NC(=O)Nc2c3c(cc4c2C(O)CC4)CCC3)s1` (single isomer, unassigned) [Example 392, (R, S) or (R, R) or (S, R) or (S, S)-N′-((3-hydroxy-1,2,3,5,6,7-hexahydroxy-indacen-4-yl)carbamoyl)-2-(2-hydroxypropan-2-yl)thiazole-5-sulfonimid-amide] it was 200 to 1000 nM. Consider `CN1CCc2cc(S(N)(=O)=NC(=O)Nc3c4c(cc5c3CCC5)CCC4)ccc2C1` (single isomer, unassigned) [Example 395, (R) or (S)-N′-((1,2,3,5,6,7-hexahydro-s-indacen-4-yl)carbamoyl)-2-methyl-1,2,3,4-tetrahydroisoquin-oline-6-sulfonimidamide], for which the half-inhibitory concentration (IC50) was 1000 to 5000 nM. Then `COC(C)(C)c1ccc(S(N)(=O)=NC(=O)Nc2c3c(cc4c2CCC4)CCC3)cc1` (single isomer, unassigned) [Example 399, (R) or (S)-N′-((1,2,3,5,6,7-hexahydro-s-indacen-4-yl)carbamoyl)-4-(2-meth-oxypropan-2-yl)benzene-sulfonimidamide], with 200 to 1000 nM.
